Source: the supplement of paper PMC10307832

Compound: CC(C)(C)c1nc(-c2cccc(NS(=O)(=O)c3c(F)cccc3F)c2F)c(-c2ccnc(N)n2)s1 [Dabrafenib] + Cc1nc(NC(=O)N2CCC[C@H]2C(N)=O)sc1-c1ccnc(C(C)(C)C(F)(F)F)c1 [Alpelisib] (partner 2 µM)
Assay: relative viability (nuclei count vs DMSO), 5 days (fraction); higher = more cells survive
Conditions: first compound 0.003 µM
Summary of the method: (§1)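 The day after seeding in 1536-well plates, lung cancer cell lines were treated by pin tool with a single drug, or with a fixed anchor-drug dose together with five library-drug doses (not always all listed) in √10 steps. After 5 days, a combined fix-and-stain solution (final 0.05% Triton X-100, 1% formaldehyde, 1 ug/ml Hoechst) was added. Nuclei counted on 4× images gave relative viability as treated counts over vehicle counts, reported as the median of duplicate plates.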

Cell Line | relative viability
CAL-12T | 1.38
NCI-H1944 | 0.785
NCI-H2085 | 0.949
IA-LM | 0.613
NCI-H2228 | 0.585
EMC-BAC-2 | 0.744
NCI-H2170 | 0.91
NCI-H1703 | 0.356
UMC-11 | 1.08
LCLC-103H | 0.726
NCI-H596 | 0.408
HCC-827 | 0.895
COR-L 105 | 0.829
NCI-H1299 | 1.14
NCI-H2126 | 0.706
A549 | 0.641
HCC-44 | 0.751
NCI-H1651 | 0.994
NCI-H1755 | 0.907
PC-14 | 0.901
Calu-6 | 0.964
NCI-H1563 | 0.944
EBC-1 | 0.71

Same assay, conditions: first compound 0.009487 µM

Cell Line | relative viability
ABC-1 | 0.934
CAL-12T | 1.33
NCI-H1944 | 0.877
NCI-H2085 | 1.02
IA-LM | 0.607
NCI-H2228 | 0.858
NCI-H441 | 0.915
EMC-BAC-2 | 0.746
NCI-H2170 | 0.848
NCI-H1703 | 0.309
UMC-11 | 1.01
NCI-H650 | 1.09
LCLC-103H | 1.16
NCI-H596 | 0.578
HCC-827 | 0.967
COR-L 105 | 1.08
NCI-H1299 | 0.982

Cell Line | relative viability
NCI-H2126 | 0.78
A549 | 0.949
NCI-H647 | 1.09
LOU-NH91 | 0.803
HCC-78 | 0.445
HCC-44 | 0.792
NCI-H1651 | 1.01
NCI-H1755 | 0.937
HOP-62 | 1
PC-14 | 0.946
A-427 | 1.18
NCI-H1355 | 0.935
Calu-6 | 0.896
NCI-H1563 | 0.971
HCC-366 | 0.435
EBC-1 | 0.649

Same assay, conditions: first compound 0.03 µM

Cell Line | relative viability
ABC-1 | 1.14
CAL-12T | 1.27
NCI-H1944 | 0.745
NCI-H2085 | 0.93
IA-LM | 0.72
NCI-H2228 | 0.813
NCI-H441 | 0.817
EMC-BAC-2 | 0.574
NCI-H2170 | 0.713
NCI-H1703 | 0.291
UMC-11 | 1
NCI-H650 | 0.953
LCLC-103H | 0.912
NCI-H596 | 0.427
HCC-827 | 0.778
COR-L 105 | 1.16
NCI-H1299 | 1.03

Cell Line | relative viability
NCI-H2126 | 0.74
A549 | 0.83
NCI-H647 | 1.12
LOU-NH91 | 0.652
HCC-78 | 0.346
HCC-44 | 0.789
NCI-H1651 | 0.859
NCI-H1755 | 0.734
HOP-62 | 0.734
PC-14 | 0.938
A-427 | 0.885
NCI-H1355 | 0.608
Calu-6 | 0.92
NCI-H1563 | 0.853
HCC-366 | 0.145
EBC-1 | 0.563

Same assay, conditions: first compound 0.09487 µM

Cell Line | relative viability
ABC-1 | 1.13
CAL-12T | 1.14
NCI-H1944 | 0.84
NCI-H2085 | 0.997
IA-LM | 0.242
NCI-H2228 | 0.807
NCI-H441 | 0.677
EMC-BAC-2 | 0.666
NCI-H2170 | 0.733
NCI-H1703 | 0.379
UMC-11 | 0.937
NCI-H650 | 0.906
LCLC-103H | 0.853
NCI-H596 | 0.534
HCC-827 | 0.793
COR-L 105 | 1.13

Cell Line | relative viability
NCI-H1299 | 0.87
NCI-H2126 | 0.796
A549 | 0.754
NCI-H647 | 0.945
LOU-NH91 | 0.7
HCC-78 | 0.305
HCC-44 | 0.732
NCI-H1651 | 0.935
NCI-H1755 | 0.904
HOP-62 | 0.902
PC-14 | 0.892
A-427 | 0.932
Calu-6 | 0.723
NCI-H1563 | 0.777
HCC-366 | 0.374
EBC-1 | 0.264

Same assay, conditions: first compound 0.3 µM

Cell Line | relative viability
ABC-1 | 1.28
CAL-12T | 1.45
NCI-H1944 | 0.838
NCI-H2085 | 0.954
IA-LM | 0.0678
NCI-H2228 | 0.896
NCI-H441 | 0.692
EMC-BAC-2 | 0.784
NCI-H2170 | 0.95
NCI-H1703 | 0.362
UMC-11 | 0.935
NCI-H650 | 0.706
LCLC-103H | 0.972
NCI-H596 | 0.566
HCC-827 | 0.963
COR-L 105 | 1.14
NCI-H1299 | 0.757

Cell Line | relative viability
NCI-H2126 | 0.777
A549 | 0.705
NCI-H647 | 1.03
LOU-NH91 | 0.743
HCC-78 | 0.332
HCC-44 | 0.807
NCI-H1651 | 0.904
NCI-H1755 | 0.875
HOP-62 | 0.771
PC-14 | 0.833
A-427 | 1.1
NCI-H1355 | 0.809
Calu-6 | 0.593
NCI-H1563 | 1.06
HCC-366 | 0.59
EBC-1 | 0.24

Compound: NC(=O)c1ccc(N(C(N)=O)c2c(F)cccc2F)nc1-c1ccc(F)cc1F [VX-702] + CC(=O)Nc1cccc(-n2c(=O)n(C3CC3)c(=O)c3c(Nc4ccc(I)cc4F)n(C)c(=O)c(C)c32)c1 [Trametinib] (partner 0.02 µM)
Assay: as above
Conditions: first compound 0.02 µM
Summary of the method: as §1

Cell Line | relative viability
CAL-12T | 0.368
NCI-H1944 | 0.426
NCI-H2085 | 0.547
NCI-H2228 | 0.485
NCI-H441 | 0.349
NCI-H522 | 0.736
EMC-BAC-2 | 0.914
NCI-H2170 | 0.999
UMC-11 | 0.682
NCI-H650 | 0.92
LCLC-103H | 0.723
NCI-H596 | 0.908
HCC-827 | 0.55
COR-L 105 | 0.472
NCI-H2126 | 0.511
NCI-H647 | 0.555
LOU-NH91 | 0.828
HCC-78 | 0.53
HCC-44 | 1.11
NCI-H1651 | 0.747
NCI-H1755 | 0.841
HOP-62 | 0.419
PC-14 | 0.781
NCI-H1650 | 0.599
ChaGo-K-1 | 0.948
A-427 | 0.752
NCI-H1355 | 0.464
NCI-H1648 | 0.395
NCI-H2342 | 0.686
HCC-366 | 0.341

Same assay, conditions: first compound 0.2 µM

Cell Line | relative viability
CAL-12T | 0.371
NCI-H1944 | 0.401
NCI-H2085 | 0.537
NCI-H2228 | 0.518
NCI-H441 | 0.386
NCI-H522 | 0.759
EMC-BAC-2 | 0.921
NCI-H2170 | 0.891
UMC-11 | 0.544
NCI-H650 | 0.978
LCLC-103H | 0.743
NCI-H596 | 0.832
HCC-827 | 0.501
COR-L 105 | 0.437
NCI-H2126 | 0.542
NCI-H647 | 0.571
LOU-NH91 | 0.763
HCC-78 | 0.861
HCC-44 | 1.06
NCI-H1651 | 0.822
NCI-H1755 | 0.799
HOP-62 | 0.397
PC-14 | 0.693
NCI-H1650 | 0.725
ChaGo-K-1 | 0.903
A-427 | 0.707
NCI-H1355 | 0.38
NCI-H1648 | 0.579
NCI-H2342 | 1.01
HCC-366 | 0.314

Same assay, conditions: first compound 0.6325 µM

Cell Line | relative viability
CAL-12T | 0.321
NCI-H1944 | 0.398
NCI-H2085 | 0.588
NCI-H2228 | 0.551
NCI-H441 | 0.351
NCI-H522 | 0.708
EMC-BAC-2 | 0.842
NCI-H2170 | 0.958
UMC-11 | 0.562
NCI-H650 | 1.1
LCLC-103H | 0.665
NCI-H596 | 0.835
HCC-827 | 0.515
COR-L 105 | 0.395
NCI-H2126 | 0.547
NCI-H647 | 0.497
LOU-NH91 | 0.768
HCC-78 | 0.741
HCC-44 | 1.05
NCI-H1651 | 0.819
NCI-H1755 | 0.838
HOP-62 | 0.469
PC-14 | 0.825
NCI-H1650 | 0.656
ChaGo-K-1 | 0.859
A-427 | 0.687
NCI-H1355 | 0.368
NCI-H1648 | 0.593
NCI-H2342 | 0.871
HCC-366 | 0.269

Same assay, conditions: first compound 2 µM

Cell Line | relative viability
CAL-12T | 0.329
NCI-H1944 | 0.378
NCI-H2085 | 0.374
NCI-H2228 | 0.602
NCI-H441 | 0.538
NCI-H522 | 0.74
EMC-BAC-2 | 0.725
NCI-H2170 | 0.987
UMC-11 | 0.846
NCI-H650 | 1.08
LCLC-103H | 0.711
NCI-H596 | 0.886
HCC-827 | 0.425
COR-L 105 | 0.42
NCI-H2126 | 0.544
